Assay results as given in PMC8253137, “Microbiota-derived butyrate is an endogenous HIF prolyl hydroxylase inhibitor” (Gut Microbes, 2021).

Key:
T84 cells = experiment: HIF stabilization in T84 cells (HIF-1α target mRNA, HIF-1α western blot); type: cell-based; settings: 4 h
Method: T84 cells were cultured in 95% air with 5% CO2 at 37°C in standard media made of DMEM:F-12 supplemented with 10% calf serum, 1% penicillin/streptomycin, and 1% GlutaMAX™ (ThermoFisher Scientific) on 9.6 cm^2 6-well plates (ThermoFisher Scientific). Real-time oxygen sensing was done using the SensorDish Reader from Applikon Biotechnology as described previously with T84 cells plated on 0.33 cm^2 transwell inserts (Corning, 0.4 μm).[12] All MCPA treatments included a 2 h pretreatment with MCPA before treatment with butyrate.
(§1) TRIzol® reagent (ThermoFisher Scientific) was used to isolate total RNA from T84 cells. Mouse colon tissue samples were harvested into RNAlater™ (Invitrogen) and stored at 4°C for 48 h. Total RNA was isolated from the tissues using RNeasy Plus Mini Kit (Qiagen). cDNA was prepared using the iScript cDNA Synthesis Kit (Bio-Rad). Quantitative PCR analysis was performed using the Power SYBR™ Green master mix (Applied Biosystems) in a thermocycler. Fold change in expression of target mRNA relative to β-actin (ACTB) mRNA was calculated using the delta-delta Ct method. Primer sequences used are as follows: hBNIP3 – forward, 5′- […] −3′, reverse, 5′- […] −3′; hBNIP3L – forward, 5′- […] −3′, reverse, 5′- […] −3′; hGLUT1 – forward, 5′- […] −3′, reverse, 5′- […] −3′; hACTB – forward, 5′- […]-3′, reverse, 5′- […]-3′; mBnip3 – forward, 5′- […] −3′, reverse, 5′- […] −3′; mBnip3l – forward, 5′- […] −3′, reverse, 5′- […] −3′; mGlut1 – forward, 5′- […] −3′, reverse, 5′- […] −3′; and mActb – forward, 5′- […] −3′, reverse, 5′- […] −3′.
(§2) T84 cells were rinsed with PBS and collected and lysed in 200 µL of radioimmunoprecipitation assay (RIPA, 50 mM Tris-HCl pH 8.0, 1 mM EDTA, 1% Triton X-100, […], 0.5% sodium deoxycholate, 150 mM NaCl) buffer with protease inhibitors on ice. Mouse colon samples were harvested into 350 µL of RIPA buffer and flash frozen in liquid nitrogen. Samples were homogenized by sonication, and insoluble materials removed by centrifugation at 10,000 g for 5 min at 4°C. Protein quantity of the supernatant was determined using the Bradford reagent. […]

murine colon tissue = experiment: Rectal gavage in antibiotic-treated SCFA-depleted mice; type: in vivo; settings: after antibiotics
Method: C57BL/6 mice were purchased from Jackson Laboratories. Animals were maintained and bred in standard housing conditions under 24 h/day, 7 days/week veterinary care available at the University of Colorado Anschutz Medical Campus (AMC) animal facility. All animal procedures were reviewed and approved by the Institutional Animal Care and Use Committee at AMC. 8 to 10-week-old male and female mice were pre-administered an antibiotic cocktail consisting of 1 mg/mL ampicillin, gentamicin, and neomycin, 0.5 mg/mL vancomycin, and 0.25 mg/mL metronidazole for 5 d ad libitum in addition to water control mice. Mice were then given 200 µL of tributyrin daily for three days using reusable feeding needles (18060–20, Fine Science Tools). On the third day, 4 h prior to sacrifice, select mice given tributyrin were rectally given 100 μL of 60 mM MCPA with plastic gavage tubes (FTP-20-38-50, Instech) inserted 1 cm into the rectum without surgical lubricant. Whole colon tissue at the site of the rectal gavage was collected for metabolite analysis, while colon whole tissue and epithelial scrapings upstream from the gavage site was collected for RNA and protein analysis. In the second butyrate reconstitution experiment, mice were rectally given 100 μL of 100 mM butyrate, 100 mM butyrate with 10 mM MCPA, 1.5 mM IOX2, or PBS control under anesthesia. Mice were then sacrificed 1 h after rectal supplementation and colon tissues collected for metabolite, mRNA, and protein analysis from the site of the rectal gavage.
as §1
as §2, with “reagent. Laemmli sample buffer was added to each sample. Samples (20 µg) were run and separated on 8% SDS-PAGE gels and transferred to polyvinylidene fluoride (PVDF) membranes. Membranes were blocked overnight at 4°C in Tris-buffered saline with 1% Tween-20 (TBS-T) and 5% milk.” for “reagent.”

HDACs = system: HDACs; parameters: method as in PMID 18061431, PMID 30052654; settings: cited from earlier work
PHD2_181-402 = PHD2_181-402 (Homo sapiens, UniProt Q9GZT9); experiment: Microscale thermophoresis (MST) binding
Chain of PHD2_181-402 (Q9GZT9 181-402): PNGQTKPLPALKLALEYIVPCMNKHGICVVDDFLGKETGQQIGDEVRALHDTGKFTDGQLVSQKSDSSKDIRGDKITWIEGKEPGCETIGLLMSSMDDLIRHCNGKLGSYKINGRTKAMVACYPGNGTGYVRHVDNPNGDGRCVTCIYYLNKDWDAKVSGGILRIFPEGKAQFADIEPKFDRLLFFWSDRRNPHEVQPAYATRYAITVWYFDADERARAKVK

Kd (PHD2_181-402): 2 ± 3 mM
binding to PHD2_181-402 in the presence of 2-OG (MST) (PHD2_181-402; 25 nM PHD2_181-402, with 500 nM 2-OG): no butyrate binding
SMILES: CCCC(=O)O [Butyrate]
HIF stabilization in the presence of MCPA (T84 cells; 10 mM butyrate with 1 mM MCPA): still stabilized HIF
HIF-1α protein levels (T84 cells; 10 mM butyrate): increased
HIF-1α target gene mRNA (BNIP3, BNIP3L, GLUT1) (T84 cells; 10 mM butyrate): induction
mRNA expression of HIF-1α targets Bnip3, Bnip3l, Glut1 (murine colon tissue; colon tissue, rectal 100 mM butyrate or 1.5 mM IOX2, 1 h): rescued
mRNA expression of HIF-1α targets Bnip3, Bnip3l, Glut1, butyrate with MCPA (murine colon tissue; colon tissue, rectal 100 mM butyrate with 10 mM MCPA, 1 h): rescued
colon tissue 2-OG levels (murine colon tissue; rectal 100 mM butyrate or 1.5 mM IOX2, 1 h): rescued
HDAC inhibition (HDACs): most potently inhibits HDACs
